Measured values: paper PMC11254100 (Angewandte Chemie (International ed. in English), 2024)

Molecular target: CAHEX:6HIS (Human immunodeficiency virus type 1 group M subtype B, UniProt P12493, A146C/E177C/M317A/W316A)
Conditions: BLI, CAHEX:6HIS immobilized on HIS-affinity probes

**Q.** Which koff does the source give for Lenacapvir here?
**A.** 2.978 ± 0.015 x10^−4 s^−1

**Q.** What about the kon of the same substance?
**A.** 1.040 ± 0.007 x10^4 M^−1s^−1
